The test system of data set [1] is KRas G12D-mediated ERK phosphorylation. Put plainly: Inhibition of KRas G12D-mediated ERK phosphorylation in AGS cells. In kind it is cell-based. Conditions: read-out: AGS-pERK IC50. The method, then:
Day 1: AGS cells were seeded into 384-well cell culture plates and cultured overnight in a 37° C., 5% CO2 incubator.
Day 2: The compounds were added to the plates using Echo550 and incubated for 3 h in a 37° C., 5% CO2 incubator. Then cells were fixed with paraformaldehyde, permeated with methanol, and blocked with the blocking solution. Finally, a mixed solution of primary antibodies (rabbit anti pERK, mouse anti GAPDH) was added, and the mixture was incubated at 4° C. overnight.
Day 3: The mixed solution of primary antibodies was discarded, and a mixed solution of secondary antibodies (goat anti rabbit 800CW, goat anti mouse 680RD) was added. The mixture was incubated at room temperature in the dark. Finally, the cell culture plate was washed with PBST, and then inverted for 1 minute of centrifugation. The fluorescence signal values were read with Odyssey CLx.
ERK phosphorylation was calculated according to the following formula: […]
X: log value of compound concentration.
Y: average value of relative expression of p-ERK between replicate wells.

The nature of data set [2]: Pharmacokinetics of compounds in rats (oral). It is filed as in vivo, SD rats. Conditions: male SD rats. Here is the method: Male SD rats were purchased from Shanghai SIPPR-Bk Lab Animal Co., Ltd. Each test compound was administered orally (3 rats per group) once to SD rats for pharmacokinetic study. The test compounds were prepared on the day of administration. The test compounds were suspended in 5% DMSO+95% saline, and then vortexed for 2 min and ultrasonicated for 5 min to prepare the administration system. The animals were fasted for 10-14 h before oral administration, and the feeding was resumed 4 h after administration. After oral administration by gavage, pharmacokinetic samples were collected from SD rats through the jugular vein. The collection time points were: before administration, 15 min, 30 min, 1 h, 2 h, 4 h, 6 h, 8 h and 24 h after administration. Three whole blood samples were collected at each time point, with a collection volume of about 0.2 mL, and anticoagulated with sodium heparin. After blood samples were collected, they were immediately placed on ice and centrifuged to separate plasma within 1 hour (centrifugation conditions: 6800 rpm, 6 min, 2-8° C.). The collected plasma was stored in a −80° C. refrigerator before analysis.

The mark [3] stands for this setting: male, SD, rat, plasma, po, 10 mg/kg, 10 mg/kg, read-out: AUC.
The mark [4] stands for this setting: male, SD, rat, plasma, po, 10 mg/kg, 10 mg/kg, read-out: Cmax.
Where [5] appears, read: male, SD, rat, plasma, po, 100 mg/kg, 100 mg/kg, read-out: AUC.
Setting [6] is: male, SD, rat, plasma, po, 100 mg/kg, 100 mg/kg, read-out: Cmax.

pIC50: −log10 of the molar value. Where two headings read alike, the source gives them in different places.

Take `C#Cc1c(F)ccc2cc(O)cc(-c3ncc4c(N5C[C@H]6CC[C@@H](C5)N6)nc(OCC56CCCN5C(c5ccc(OC)cc5)CC6)nc4c3F)c12` (stereo partly drawn) [Example 52, 4-(4-((1R,5S)-3,8-diazabicyclo[3.2.1]octan-3-yl)-8-fluoro-2-((3-(4-methoxyphenyl)tetrahydro-1H-pyrrolidin-7a(5H)-yl)methoxy)pyrido[4,3-d]pyrimidin-7-yl)-5-ethynyl-6-fluoronaphthalen-2-ol]: the pIC50 (usually −log10 of the IC50, conventionally taken in molar units) in data set [1] was 8.22.

On to `C#Cc1c(F)ccc2cc(O)cc(-c3ncc4c(N5CC6CCC(C5)N6)nc(OCC56CCCN5C(c5ccc7c(c5)COC7)CC6)nc4c3F)c12` (centres unmarked) [Example 178], for which the pIC50 in data set [1] (Homo sapiens, AGS) is 8.42.

Turning to `COc1cc([C@H]2CCC3(COc4nc(N5CC6CCC(C5)N6)c5cnc(-c6cc(O)cc7ccc(F)c(F)c67)c(F)c5n4)CCCN23)ccc1C(F)(F)F` (mixture of isomers) [Example 228], the pIC50 in data set [1] (Homo sapiens, AGS) is 8.72.

Take `Oc1cc(-c2ncc3c(N4CC5CCC(C4)N5)nc(OCC45CCCN4C(c4ccc6occc6c4)CC5)nc3c2F)c2ccccc2c1` (centres unmarked) [Example 131]: the AUC (in general, concentration integrated over time) in data set [2] (setting [3]) is 57 ng·h/mL. In addition, the Cmax – broadly, the peak of the concentration-time curve – in data set [2] (setting [4]) turned out to be 13 ng/mL.

As to `Oc1cc(-c2ncc3c(N4CC5CCC(C4)N5)nc(OCC45CCCN4C(c4ccc(-c6ccc(F)cc6)cc4)CC5)nc3c2F)c2c(F)c(F)ccc2c1` (centres unmarked) [Example 190], the AUC in data set [2] (setting [5]) came out at 939 ng·h/mL. The Cmax in data set [2] (setting [6]) turned out to be 66 ng/mL.

For `Nc1ccc(C(F)(F)F)c(-c2ncc3c(N4CC5CCC(C4)N5)nc(OCC45CCCN4[C@@H](c4ccc6c(c4)OC(F)(F)O6)CC5)nc3c2F)c1` (mixture of isomers) [Example 234], the AUC in data set [2] (setting [5]) worked out at 1190 ng·h/mL. The Cmax in data set [2] (setting [6]) came out at 182 ng/mL.

In data set [2] (10 mg/kg), `Oc1cc(-c2ncc3c(N4C[C@H]5CC[C@@H](C4)N5)nc(OCC45CCC(c6ccc(OC(F)(F)F)cc6)N4CC4(CC4)C5)nc3c2F)c2ccccc2c1` (stereo partly drawn) [Example 143, 4-(4-((1R,5S)-3,8-diazabicyclo[3.2.1]octan-3-yl)-8-fluoro-2-((5′-(4-(trifluoromethoxy)phenyl)dihydro-1′H,3′H-spiro[cyclopropan-1,2′-pyrrolizin]-7a′(5′H)-yl)methoxy]pyrido[4,3d]pyrimidin-7-yl)naphthalen-2-ol] had an AUC of 410 ng·h/mL and a Cmax of 32 ng/mL.

As to “4-(4-((1R,5S)-3,8-diazabicyclo[3.2.1]octan-3-yl)-2-((3-(1,3-dihydroisobenzofuran-5-yl-1,1,3,3-d4)tetrahydro-1H-pyrrolizin-7a(5H)-yl)methoxy)-8-fluoropyridin[4,3-d]pyrimidin-7-yl)naphthalen-2-ol [Example 148]”, in data set [1], the pIC50 is 7.92.

As to `Oc1cc(-c2ncc3c(N4CC5CCC(C4)N5)nc(OCC45CCCN4[C@@H](c4ccc(F)cc4)CC5)nc3c2F)c2c(F)c(F)ccc2c1` (single isomer, unassigned) [Example 193], the pIC50 in data set [1] (Homo sapiens, AGS) was 8.04.

As to `Oc1cc(-c2ncc3c(N4CC5CCC(C4)N5)nc(OCC45CCCN4C(c4ccc(F)cc4)CC5)nc3c2F)c2c(F)c(F)ccc2c1` (centres unmarked) [Example 194], in data set [1], the pIC50 was 8.96.

Turning to `Oc1cc(-c2ncc3c(N4CC5CCC(C4)N5)nc(OCC45CCCN4[C@@H](c4ccc6ccccc6c4)CC5)nc3c2F)c2c(F)c(F)ccc2c1` (mixture of isomers) [Example 218], the pIC50 in data set [1] (Homo sapiens, AGS) was 8.62.

`[2H]C1([2H])OCc2cc(C3CCC4(COc5nc(N6C[C@H]7CC[C@@H](C6)N7)c6cnc(-c7cc(O)cc8ccc(F)c(F)c78)c(F)c6n5)CCCN34)ccc21` (stereo partly drawn) [Example 151, 4-(4-((1R,5S)-3,8-diazabicyclo[3.2.1]octan-3-yl)-2-((3-(1,3-dihydroisobenzofuran-5-yl-1,1-d2)tetrahydro-1H-pyrrolizin-7a(5H)-yl)methoxy)-8-fluoropyrido[4,3-d]pyrimidin-7-yl)-5,6-difluoronaphthalen-2-ol]: in data set [1] (Homo sapiens, AGS), the pIC50 was 8.12.

As to `Nc1ccc(OC(F)(F)F)c(-c2ncc3c(N4CC5CCC(C4)N5)nc(OC[C@]45CCCN4C(c4ccc6c(c4)OC(F)(F)O6)CC5)nc3c2F)c1` (stereo partly drawn) [Example 163, 3-(4-((1R,5S)-3,8-diazabicyclo[3.2.1]octan-3-yl)-2-((3-(2,2-difluorobenzo[d][1,3]dioxy-5-yl)tetrahydro-1H-pyrrolizin-7a(5H)-yl)methoxy)-8-fluoropyridin[4,3d]pyrimidin-7-yl)-4-(trifluoromethoxy)], in data set [2] (setting [5]), the AUC was found to be 2750 ng·h/mL. The Cmax in data set [2] (setting [6]) came out at 388 ng/mL.

In the case of `COc1ccc([C@H]2CCC3(COc4nc(N5CC6CCC(C5)N6)c5cnc(-c6cc(O)cc7ccc(F)c(F)c67)c(F)c5n4)CCCN23)cc1OC(F)(F)F` (some centres unmarked) [Example 216], in data set [1] (Homo sapiens, AGS), the pIC50 was 8.80.

As for `Oc1cc(-c2ncc3c(N4CC5CCC(C4)C5(F)F)nc(OC[C@@]45CCCN4C[C@H](F)C5)nc3c2F)c2c(F)c(F)ccc2c1` [Example 86], in data set [2] (setting [3]), the AUC was found to be 52 ng·h/mL. In addition, the Cmax in data set [2] (setting [4]) amounted to 21 ng/mL.

In data set [2] (100 mg/kg), `Oc1cc(-c2ncc3c(N4C[C@H]5CC[C@@H](C4)N5)nc(OCC45CCCN4C(c4ccc6c(c4)OC(F)(F)O6)CC5)nc3c2F)c2c(F)c(F)ccc2c1` (stereo partly drawn) [Example 140, 4-(4-((1R,5S)-3,8-diazabicyclo[3.2.1]octan-3-yl)-2-((3-(2,2-difluorobenzo[d][1,3]dioxy-5-yl)tetrahydro-1H-pyrrolizin-7a(5H)-yl)methoxy)-8-fluoropyridin[4,3d]pyrimidin-7-yl)-5,6-difluoronaphthalen-2-ol] returned an AUC of 444 ng·h/mL and a Cmax of 113 ng/mL.

As to `Oc1cc(-c2ncc3c(N4CC5CCC(C4)N5)nc(OCC45CCCN4C(c4ccc(OC(F)(F)F)cc4)CC5)nc3c2F)c2ccccc2c1` (centres unmarked) [Example 118], the AUC in data set [2] (setting [3]) came to 224 ng·h/mL; in data set [2] (setting [5]) it was 1290 ng·h/mL. The Cmax in data set [2] (setting [4]) was 31 ng/mL; in data set [2] (setting [6]), 115 ng/mL.

Turning to `C#Cc1c(F)ccc2cc(O)cc(-c3ncc4c(N5CC6CCC(C5)N6)nc(OCC56CCCN5[C@@H](c5ccc(OC(F)(F)F)cc5)CC6)nc4c3F)c12` (mixture of isomers) [Example 214], the pIC50 in data set [1] (Homo sapiens, AGS) is 9.00.

With `Cc1cc(N)cc(-c2ncc3c(N4CC5CCC(C4)N5)nc(OCC45CCCN4[C@@H](c4ccc6c(c4)OC(F)(F)O6)CC5)nc3c2F)c1C(F)(F)F` (mixture of isomers) [Example 235], the pIC50 in data set [1] (Homo sapiens, AGS) is 7.89.

Regarding `Nc1cc(F)c(C(F)(F)F)c(-c2ncc3c(N4CC5CCC(C4)N5)nc(OCC45CCCN4C(c4ccc6c(c4)OC(F)(F)O6)CC5)nc3c2F)c1` (centres unmarked) [Example 237], the AUC in data set [2] (setting [5]) came out at 1510 ng·h/mL. Also, the Cmax in data set [2] (setting [6]) was 362 ng/mL.

Take `Nc1cc(Cl)c(C(F)(F)F)c(-c2ncc3c(N4CC5CCC(C4)N5)nc(OCC45CCCN4C(c4ccc(F)c(F)c4)CC5)nc3c2F)c1` (centres unmarked) [Example 244]: the pIC50 in data set [1] (Homo sapiens, AGS) was 8.19.

For the compound `Oc1cc(-c2ncc3c(N4CC5CCC(C4)N5)nc(OCC45CCCN4C(c4ccc6c(c4)OCO6)CC5)nc3c2F)c2c(F)c(F)ccc2c1` (centres unmarked) [Example 114], the pIC50 in data set [1] (Homo sapiens, AGS) is 7.85.

With `Oc1cc(-c2ncc3c(N4CC5CCC(C4)N5)nc(OCC45CCCN4[C@@H](c4ccc(C(F)(F)F)c(C(F)(F)F)c4)CC5)nc3c2F)c2c(F)c(F)ccc2c1` (mixture of isomers) [Example 219], the pIC50 in data set [1] (Homo sapiens, AGS) is 8.21.

Regarding `Oc1cc(-c2ncc3c(N4CC5CCC(C4)N5)nc(OCC45CCCN4C(c4ccc(C(F)(F)F)cc4)CC5)nc3c2F)c2ccccc2c1` (centres unmarked) [Example 170], in data set [2] (setting [3]), the AUC was determined as 533 ng·h/mL. Besides, the Cmax in data set [2] (setting [4]) is 39 ng/mL.

In data set [2] (10 mg/kg), `Oc1cc(-c2ncc3c(N4C[C@H]5CC[C@@H](C4)N5)nc(OCC45CCCN4C(c4ccc(C6=CCOCC6)cc4)CC5)nc3c2F)c2ccccc2c1` (stereo partly drawn) [Example 45, 4-(4-((1R,5S)-3,8-diazabicyclo[3.2.1]octan-3-yl)-2-((3-(4-(3,6-dihydro-2H-pyran-4-yl)phenyl)tetrahydro-1H-pyrrolidin-7a(5H)-yl)methoxy)-8-fluoropyrido[4,3-d]pyrimidin-7-yl)naphthalen-2-ol] displayed an AUC of 94 ng·h/mL and a Cmax of 21 ng/mL.

In the case of `Oc1cc(-c2ncc3c(N4CC5CCC(C4)N5)nc(OCC45CCCN4C(c4ccc(OC(F)(F)F)cc4)CC5)nc3c2F)c2c(F)c(F)ccc2c1` (centres unmarked) [Example 210], the AUC in data set [2] (setting [5]) was found to be 246 ng·h/mL. Moreover, in data set [2] (setting [6]), the Cmax is 145 ng/mL.

Turning to `Oc1cc(-c2ncc3c(N4CC5CCC(C4)N5)nc(OCC45CCCN4C(c4ccc6c(c4)OC(F)(F)O6)CC5)nc3c2F)c2ccccc2c1` (centres unmarked) [Example 132], the AUC in data set [2] (setting [3]) amounted to 240 ng·h/mL. For the same compound, the Cmax in data set [2] (setting [4]) is 29 ng/mL.

For `Oc1cc(-c2ncc3c(N4CC5CCC(C4)N5)nc(OCC45CCCN4[C@@H](c4ccc(C(F)(F)F)c(Cl)c4)CC5)nc3c2F)c2c(F)c(F)ccc2c1` (mixture of isomers) [Example 215], in data set [2] (setting [5]), the AUC is 471 ng·h/mL. Also, the Cmax in data set [2] (setting [6]) came out at 128 ng/mL.

The values above are taken from patent publication US20250206759A1, “FUSED RING COMPOUND, PHARMACEUTICAL COMPOSITION CONTAINING SAME, AND USE OF FUSED RING COMPOUND” (CHENGDU HYPERWAY PHARMACEUTICALS CO., LTD., priority 2022, published 2025).
